Patent US20200199102A1, “COMPOUNDS THAT PARTICIPATE IN COOPERATIVE BINDING AND USES THEREOF” (Revolution Medicines, Inc., priority 2017, published 2020)
Where a SMILES comes first, the peptide text is derived from it. [ ]: non-standard residue; d: D form. MeBmt = C/C=C/C[C@@H](C)[C@@H](O)[C@H](NC)C(=O)O; NMeY = CN[C@@H](Cc1ccc(O)cc1)C(=O)O; NMeF = CN[C@@H](Cc1ccccc1)C(=O)O; NMeI = CC[C@H](C)[C@H](NC)C(=O)O; NMeT = CN[C@H](C(=O)O)[C@@H](C)O; NMeL = CN[C@@H](CC(C)C)C(=O)O; NMeV = CN[C@H](C(=O)O)C(C)C; NMeA = CN[C@@H](C)C(=O)O; Abu = CC[C@H](N)C(=O)O; Sar = CNCC(=O)O

Molecular target: T1, Cyclophilin A (Homo sapiens, UniProt P62937)
T1 construct: made in house
Experiment: AlphaLISA inhibition of binding of biotinylated Cyclosporin A to FLAG tagged Cyclophilin A
Conditions: for % signal: AlphaLISA signal; for % signal / % inhibition of CsA binding to Cyclophilin A: test concentration not given; for IC50: read-out: IC50 value of CsA binding to Cyclophilin A
Text: The binding of compounds of the invention to Cyclophilin A can be determined using the following protocol.
This protocol utilizes Perkin Elmers AlphaLISA technology platform to detect cyclosporine analogues by measuring the inhibition of binding of biotinylated Cyclosporin A to FLAG tagged Cyclophilin A.
10×TBST Buffer (Boston BioProducts IBB-181), Biotinylated Cyclosporin A (in-house), FLAG tagged Cyclophilin A (in-house); anti-FLAG Donor beads (PerkinElmer AS103) and Streptavidin Acceptor beads (PerkinElmer AL125); Compounds in DMSO (in-house), Cyclosporin A (LC Labs Cat #C-6000).
Add 20 uL of 6 nM Biotinylated CsA working stock to each well of the 96-well plate. Add 1 uL of test compound (100% DMSO) to each well of the plate using the Janus MTD head and P20 tips (except control wells). Add 1 uL of DMSO to negative control wells and 1 uL of 500 uM Cyclosporin A solution to positive control wells. In the dark, add 20 uL of combined Donor/Acceptor beads to each well. Incubate in the dark for 30 minutes at room temperature. In the dark, add 10 uL of 25 nM Flag tagged CypA working stock to each well. Incubate in the dark for 60 minutes at room temperature. Protect plate from light until reading on Biotek Synergy2 Plate Reader; Alphalisa 96-well protocol (680 excitation/615 emission).

T1 sequence (P62937 whole entry, species assumed): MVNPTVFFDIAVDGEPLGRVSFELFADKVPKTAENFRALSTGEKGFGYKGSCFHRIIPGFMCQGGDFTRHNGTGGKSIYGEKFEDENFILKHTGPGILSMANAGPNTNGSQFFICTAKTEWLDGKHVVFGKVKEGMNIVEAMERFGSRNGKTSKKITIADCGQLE

| Structure (SMILES) | % signal | IC50 | % inhibition of CsA binding to Cyclophilin A |
| --- | --- | --- | --- |
| C/C=C/C[C@@H](C)[C@@H](O)[C@H]1C(=O)N[C@@H](CC)C(=O)N(C)CC(=O)N(C)[C@@H](Cc2ccccc2)C(=O)N[C@@H](C)C(=O)N(C)CC(=O)N[C@@H](C)C(=O)N[C@H](C)C(=O)N(C)[C@@H](CC(C)C)C(=O)N(C)[C@@H](CC(C)C)C(=O)N(C)[C@@H](C(C)C)C(=O)N1C [Compound C20] (cyclo([MeBmt][Abu][Sar][NMeF]A[Sar]A[dA][NMeL][NMeL][NMeV])) | 2.77% | < 2 µM | 97.23% |
| C/C=C/C[C@@H](C)[C@@H](O)[C@H]1C(=O)N[C@@H](CC)C(=O)N(C)CC(=O)N(C)CC(=O)N[C@@H](C)C(=O)N(C)CC(=O)N[C@@H](C)C(=O)N[C@H](C)C(=O)N(C)[C@@H](CC(C)C)C(=O)N(C)[C@@H](CC(C)C)C(=O)N(C)[C@@H](C(C)C)C(=O)N1C [Compound C21] (cyclo([MeBmt][Abu][Sar][Sar]A[Sar]A[dA][NMeL][NMeL][NMeV])) | 31.08% | < 2 µM | 68.92% |
| C/C=C/C[C@@H](C)[C@@H](O)[C@H]1C(=O)N[C@@H](CC)C(=O)N(C)CC(=O)N(C)[C@@H](Cc2ccccc2)C(=O)N[C@@H](C(C)C)C(=O)N(C)CC(=O)N[C@@H](C)C(=O)N[C@H](C)C(=O)N(C)[C@@H](CC(C)C)C(=O)N(C)[C@@H](CC(C)C)C(=O)N(C)[C@@H](C(C)C)C(=O)N1C [Compound C27] (cyclo([MeBmt][Abu][Sar][NMeF]V[Sar]A[dA][NMeL][NMeL][NMeV])) | 5.27% | < 2 µM | 94.73% |
| C/C=C/C[C@@H](C)[C@@H](O)[C@H]1C(=O)N[C@@H](CC)C(=O)N(C)CC(=O)N(C)[C@@H](Cc2ccc(O)cc2)C(=O)N[C@@H](C(C)C)C(=O)N(C)CC(=O)N[C@@H](C)C(=O)N[C@H](C)C(=O)N(C)[C@@H](CC(C)C)C(=O)N(C)[C@@H](CC(C)C)C(=O)N(C)[C@@H](C(C)C)C(=O)N1C [Compound C32] (cyclo([MeBmt][Abu][Sar][NMeY]V[Sar]A[dA][NMeL][NMeL][NMeV])) | 0.14% | < 2 µM | 99.86% |
| C/C=C/C[C@@H](C)[C@@H](O)[C@H]1C(=O)N[C@@H](CC)C(=O)N(C)CC(=O)N(C)[C@@H]([C@@H](C)CC)C(=O)N[C@@H](C(C)C)C(=O)N(C)[C@@H](CC(C)C)C(=O)N[C@@H](CC(C)C)C(=O)N[C@H](C)C(=O)N(C)[C@@H](CC(C)C)C(=O)N(C)[C@@H](CC(C)C)C(=O)N(C)[C@@H](C(C)C)C(=O)N1C [Compound C45] (cyclo([MeBmt][Abu][Sar][NMeI]V[NMeL]L[dA][NMeL][NMeL][NMeV])) | −0.03% | < 2 µM | 100.03% |

The next lines start with the values.

| % signal | IC50 | % inhibition of CsA binding to Cyclophilin A | Structure (SMILES) |
| --- | --- | --- | --- |
| 5.97% | < 2 µM | 94.03% | C/C=C/C[C@@H](C)[C@@H](O)[C@H]1C(=O)N[C@@H](CC)C(=O)N(C)CC(=O)N(C)[C@@H](CC(C)C)C(=O)N[C@@H](C)C(=O)N(C)CC(=O)N[C@@H](C)C(=O)N[C@H](C)C(=O)N(C)[C@@H](CC(C)C)C(=O)N(C)[C@@H](CC(C)C)C(=O)N(C)[C@@H](C(C)C)C(=O)N1C [Compound C22] (cyclo([MeBmt][Abu][Sar][NMeL]A[Sar]A[dA][NMeL][NMeL][NMeV])) |
| 1.28% | < 2 µM | 98.72% | C/C=C/C[C@@H](C)[C@@H](O)[C@H]1C(=O)N[C@@H](CC)C(=O)N(C)CC(=O)N(C)[C@@H]([C@@H](C)O)C(=O)N[C@@H](C)C(=O)N(C)CC(=O)N[C@@H](C)C(=O)N[C@H](C)C(=O)N(C)[C@@H](CC(C)C)C(=O)N(C)[C@@H](CC(C)C)C(=O)N(C)[C@@H](C(C)C)C(=O)N1C [Compound C23] (cyclo([MeBmt][Abu][Sar][NMeT]A[Sar]A[dA][NMeL][NMeL][NMeV])) |
| 0.37% | < 2 µM | – | C/C=C/C[C@@H](C)[C@@H](O)[C@H]1C(=O)N[C@@H](CC)C(=O)N(C)CC(=O)N(C)[C@@H]([C@@H](C)CC)C(=O)N[C@@H](C(C)C)C(=O)N(C)CC(=O)N[C@@H](C)C(=O)N[C@H](C)C(=O)N(C)[C@@H](CC(C)C)C(=O)N(C)[C@@H](CC(C)C)C(=O)N(C)[C@@H](C(C)C)C(=O)N1C [Compound C25] (cyclo([MeBmt][Abu][Sar][NMeI]V[Sar]A[dA][NMeL][NMeL][NMeV])) |
| 1.06% | < 2 µM | 98.94% | C/C=C/C[C@@H](C)[C@@H](O)[C@H]1C(=O)N[C@@H](CC)C(=O)N(C)CC(=O)N(C)CC(=O)N[C@@H](C(C)C)C(=O)N(C)CC(=O)N[C@@H](C)C(=O)N[C@H](C)C(=O)N(C)[C@@H](CC(C)C)C(=O)N(C)[C@@H](CC(C)C)C(=O)N(C)[C@@H](C(C)C)C(=O)N1C [Compound C28] (cyclo([MeBmt][Abu][Sar][Sar]V[Sar]A[dA][NMeL][NMeL][NMeV])) |
| 0.06% | < 2 µM | 99.94% | C/C=C/C[C@@H](C)[C@@H](O)[C@H]1C(=O)N[C@@H](CC)C(=O)N(C)CC(=O)N(C)[C@@H](CC(C)C)C(=O)N[C@@H](C(C)C)C(=O)N(C)CC(=O)N[C@@H](C)C(=O)N[C@H](C)C(=O)N(C)[C@@H](CC(C)C)C(=O)N(C)[C@@H](CC(C)C)C(=O)N(C)[C@@H](C(C)C)C(=O)N1C [Compound C30] |
| −0.03% | < 2 µM | 100.03% | C/C=C/C[C@@H](C)[C@@H](O)[C@H]1C(=O)N[C@@H](CC)C(=O)N(C)CC(=O)N(C)[C@@H]([C@@H](C)O)C(=O)N[C@@H](C(C)C)C(=O)N(C)CC(=O)N[C@@H](C)C(=O)N[C@H](C)C(=O)N(C)[C@@H](CC(C)C)C(=O)N(C)[C@@H](CC(C)C)C(=O)N(C)[C@@H](C(C)C)C(=O)N1C [Compound C31] (cyclo([MeBmt][Abu][Sar][NMeT]V[Sar]A[dA][NMeL][NMeL][NMeV])) |
| 1.04% | < 2 µM | 98.96% | C/C=C/C[C@@H](C)[C@@H](O)[C@H]1C(=O)N[C@@H](CC)C(=O)N(C)CC(=O)N(C)[C@@H](C)C(=O)N[C@@H](C(C)C)C(=O)N(C)[C@@H](CC(C)C)C(=O)N[C@@H](CC(C)C)C(=O)N[C@H](C)C(=O)N(C)[C@@H](CC(C)C)C(=O)N(C)[C@@H](CC(C)C)C(=O)N(C)[C@@H](C(C)C)C(=O)N1C [Compound C46] (cyclo([MeBmt][Abu][Sar][NMeA]V[NMeL]L[dA][NMeL][NMeL][NMeV])) |
| 15.72% | < 2 µM | 84.28% | C/C=C/C[C@@H](C)[C@@H](O)[C@H]1C(=O)N[C@@H](CC)C(=O)N(C)CC(=O)N(C)[C@@H](Cc2ccccc2)C(=O)N[C@@H](C(C)C)C(=O)N(C)[C@@H](CC(C)C)C(=O)N[C@@H](CC(C)C)C(=O)N[C@H](C)C(=O)N(C)[C@@H](CC(C)C)C(=O)N(C)[C@@H](CC(C)C)C(=O)N(C)[C@@H](C(C)C)C(=O)N1C [Compound C48] (cyclo([MeBmt][Abu][Sar][NMeF]V[NMeL]L[dA][NMeL][NMeL][NMeV])) |
